Reference: US7923429B2, “Treatment for CD5+ B cell lymphoma” (3M Innovative Properties Company, priority 2003, dated 2011)

Experiments:
[1] = system: CLL cells; assay: Elimination of CLL cells by autologous T cells in co-culture; assay type: cell-based, human; settings: alone or in combination with IL-2 and/or bryostatin; 1:1 CLL:T cells, 5 days
Method: CLL cells and T cells were isolated from a CLL patient, suspended at concentrations of 10^6 cells/mL and mixed in a 1:1 ratio. The cell mixtures were cultured alone, or in the presence of IL-2, IL-2 and IRM1, bryostatin, bryostatin and IL-2, bryostatin and IRM1, or bryostatin, IL-2, and IRM1. In FIG. 5A, after 5 days, the percentages of CD5^+ CD19^+ tumor cells (indicated by the numbers in the right upper quadrants of the dot-plots) and CD5^+ CD19^− T cells were determined by flow cytometry. In FIG. 5B, these percentages and the total numbers of viable cells (determined by manual counting in a hemocytometer) were used to calculate the remaining absolute numbers of CLL cells in the cultures.

[2] = system: CLL cells; assay: Costimulatory molecule expression by activated CLL cells (flow cytometry); assay type: cell-based, human
Method: Blood samples: Heparinized blood (30-40 mL) was collected from consenting CLL patients (diagnosed by a persistent elevation of CD19^+CD5^+ IgM^lo lymphocytes (Rozman and Montserrat, New Engl. J. Med. 1995; 333:1052-1057)). All patients were untreated at the time of analysis. Protocols were approved by the appropriate Institutional Review Board.
Cell purification: CLL and T cells were isolated from fresh blood by negative selection (RosetteSep, StemCell Technologies, Vancouver, BC) as described by Gitelson et al. (Gitelson et al., Clin. Cancer Res. 2003; 99:1656-1665).
Activation of CLL cells: Purified CLL cells (1.5×10^6 cells/mL) were cultured in serum-free AIM-V medium plus 2-mercaptoethanol (2-ME, 5×10^−5 M) (Sigma Chemical Co.) in 6- or 24-well plates (Becton-Dickinson Labware, Franklin Lake, N.J.) for 3-4 days at 37° C. in 5% CO2. CLL cells were activated by adding the Negative Control compound (1 μg/mL), IRM1 (1 μg/mL), IL-2 (5000 U/mL), PDB (100 ng/mL), or bryostatin ([…]), as appropriate.
Flow cytometry: Cell staining was performed as described by Gitelson et al. (Gitelson et al., Clin. Cancer Res. 2003; 99:1656-1665).
CLL cells from the indicated number of patients were cultured in IRM1 (1 μg/mL) for 3-4 days, and then assayed for expression of the costimulatory molecules indicated on the x-axis (at an intensity greater than the first decade of log fluorescence) of FIG. 1A. The percentage of cells that expressed each costimulatory molecule and the mean fluorescence intensity (MFI) of expression were measured by flow cytometry. The “fold-increase” was then calculated from the ratio of these measurements to the percentage and MFI of control cells cultured without activating agents. […]
CLL cells were isolated and cultured alone or with IL-2 (5000 U/mL), IRM1 (1 μg/mL), or both IL-2 and IRM1 for 3-4 days. The expression of CD80, CD86, CD54, and CD83 was then determined by flow cytometry.
CD80, CD83, CD54, and CD86 expression were then determined by flow cytometry.

[3] = system: lymphomatous skin deposits associated with chronic lymphocytic leukemia; assay: Topical treatment of lymphomatous skin deposits in a CLL patient; assay type: in vivo, human; settings: topical IRM2; count at beginning 36×10^6 cells/mL
Source text: A person was diagnosed with Rai Stage 0 CLL on the basis of a persistent elevated count of circulating monoclonal CD19^+ CD5^+ IgM^lo lymphocytes, determined by flow cytometry. CD38 was expressed by 45% of circulating CLL cells. The white blood cell counts at the beginning and end of treatment with IRM2 were 36×10^6 cells/mL and 45×10^5 cells/mL, respectively. Other systemic chemotherapy, steroids, or radiation had not been administered previously.
Additionally, the patient reported having recurrent nodular, erythematous lesions on their hands and arms for approximately eight years. The lesions were usually removed by treatment with liquid nitrogen. At the time they were diagnosed with CLL, they had several such lesions over their upper back (FIG. 8A) and arms. One lesion was biopsied and found to contain a diffuse atypical lymphoid dermal infiltrate consisting of many small, round lymphocytes, without epidermotropism.
A 5% cream of IRM2 was applied to the affected area three times per week.
Administration of 5% IRM2 cream was increased to once per day.

[4] = system: T cells from CLL patients; assay: Mixed lymphocyte response: T cell proliferation stimulated by activated, irradiated CLL cells; assay type: cell-based, human; settings: CLL cells activated 3-4 days, MLR 5-6 days, alamar blue
Source text: Mixed Lymphocyte Responses (MLRs): T cells were isolated from CLL patients and adjusted to 5×10^5 cells/mL in AIM-V medium. Activated CLL cells were washed at least 4 times to remove residual immunomodulators, irradiated (2500 cGy) and suspended at 5×10^5 cells/mL (or lower concentrations) in AIM-V. Responders and stimulators were then mixed in a 1:1 (vol:vol) ratio and cultured in 96-well round bottom plates (Becton Dickinson Labware, Franklin Lake, N.J.) without additional cytokines or serum. Proliferation was measured 4-6 days later using a colorimetric assay (Gitelson et al., Clin Cancer Res. 2003; 99:1656-1665; and Ahmed et al., J. Immunol. Methods. 1994; 170:211-224).
CLL cells were purified from individual patients and cultured alone or with IL-2, IRM1, IL-2 and IRM1, PDB, PDB and IL-2, PDB and IRM1, or PDB, IL-2, and IRM1. After 3-4 days, these cells were harvested, washed extensively, irradiated (2500 cGy) and used to stimulate allogenic or autologous T cells from CLL patients (obtained at the same time as the CLL cells and rested in culture until added to the Mixed Lymphocytic Response (MLR) assay) after 5-6 days of culture, alamar blue was added and proliferation was measured in an optical density calorimetric microplate reader at wavelengths of 540 (reduced state) and 595 (oxidized state). […]

Compound: CCOCc1nc2c(N)nc3c(c2n1CC(C)(C)O)CCCC3.O [IRM1, 4-amino-2-(ethoxymethyl)-α,α-dimethyl-6,7,8,9-tetrahydro-1H-imidazo[4,5-c]quinoline-1-ethanol hydrate]
- killing of CLL cells by autologous T cells in vitro [1]: induced autologous T cells to kill CLL cells
- dependence of ICOS-L expression on signaling ([2]; IL-2 5000 U/mL, IRM1 1 μg/mL): relatively independent
- expression of 4-1BBL and PDL-1 ([2]; IL-2 5000 U/mL, IRM1 1 μg/mL, less than CD80, CD86, CD54): increased somewhat
- effect on CD80 compared with effect on CD86 ([2]; IRM1 1 μg/mL): greater
- potency as single agent in increasing CD80 and CD86 expression, relative to IL-2 ([2]; IRM1 1 μg/mL vs IL-2 5000 U/mL, 3-4 days): more potent than IL-2
- CD80, CD86, and CD54 expression ([2]; IRM1 1 μg/mL, 3-4 days): especially strong effects
- ICOS-L expression ([2]; IRM1 1 μg/mL, 3-4 days): little effect
- MFI of CD80, CD86, CD54, and CD83 ([2]; IRM1 1 μg/mL, 3-4 days): increased the expression of all four
- expression of CD83, 4-1BBL, and PDL-1 ([2]; IRM1 1 μg/mL, 3-4 days): increased
- patients whose CLL cells showed increased expression of CD54, CD80, and CD86 ([2]; IRM1 1 μg/mL, 3-4 days, n=31): all patients studied
- percentage of CLL cells that expressed CD80 and CD86, and MFI of expression ([2]; single agent, IL-2 5000 U/mL or IRM1 1 μg/mL, 3-4 days): increased

Compound: CC(C)Cn1cnc2c(N)nc3ccccc3c21 [IRM2, 1-(2-methylpropyl)-1H-imidazo[4,5-c]quinolin-4-amine]
- white blood cell count at end of treatment [3]: 45×10^5 cells/mL

Compound: CC(C)Cn1cnc2c(O)nc3ccccc3c21 [Negative Control, 4-hydroxy-1-isobutyl-1H-imidazo[4,5-c]quinoline, reference compound]
- effects on CLL cells ([2]; 1 μg/mL, 3-4 days culture): did not have measurable effects

Compound: CCCC(=O)O[C@@H]1[C@@H](C)[C@@]2(O)[C@@H](C=C(CO)C[C@]3(O)C(=O)C(C)=C[C@@H]23)[C@@H]2C(C)(C)[C@]12OC(=O)CCC [PDB, Phorbol dibutyrate, reference compound]
- ability of activated CLL cells to stimulate T cell proliferation [4]: weak stimulators
- CD54 and ICOS-L expression ([2]; PDB alone, 100 ng/mL): not affected greatly
- expression of 4-1BBL and PDL-1 ([2]; PDB alone, 100 ng/mL): increased
- CLL cells expressing CD83 ([2]; PDB alone, 100 ng/mL, 3-4 days): ~90%
- number of CD80+ and CD86+ CLL cells ([2]; PDB alone, 100 ng/mL, CD86+ more than CD80+): increased

Compound: poly (I:C) [reference compound]
- costimulatory molecule expression (CD80, CD86) by CLL cells ([2]; 100 μg/mL, 48 hours): rarely affected
